From PubChem BioAssay AID248 (DTP/NCI, 2004) come the findings set out here.

Several values for one entry are separate records, joined by “and”; a condition that tells them apart may be missing. Equal entries are not always repeated. Inconclusive results and toxic doses are left out.

The test system of this assay is L1210 leukemia ip in BDF1 mice, survival T/C. Put plainly: NCI In Vivo Anticancer Drug Screen. Data for tumor model L1210 Leukemia (intraperitoneal) in B6D2F1 (BDF1) mice. Conditions: endpoint: mean survival time, higher = longer survival. A digest of the protocol: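 Mice bearing the transplanted tumor received compound or vehicle. Survival of the treated group was divided by that of the vehicle-treated control group to give the ratio.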

Where [1] appears, read: dose: 100.0 mg/kg/injection, schedule: Q01DX009 (ip), vehicle: Klucel (hydroxypropylcellulose) (HPC).
Setting [2] is: dose: 200.0 mg/kg/injection, schedule: Q01DX009 (ip), vehicle: Klucel (hydroxypropylcellulose) (HPC).
The mark [3] stands for this setting: dose: 400.0 mg/kg/injection, schedule: Q01DX009 (ip), vehicle: Klucel (hydroxypropylcellulose) (HPC).
Where [4] appears, read: dose: 25.0 mg/kg/injection, schedule: Q01DX009 (ip), vehicle: saline.
[5] abbreviates: dose: 100.0 mg/kg/injection, schedule: Q04DX003 (ip), vehicle: Klucel (hydroxypropylcellulose) (HPC).
[6] abbreviates: dose: 3.12 mg/kg/injection, schedule: Q01DX009 (ip), vehicle: saline.
Setting [7] is: dose: 6.25 mg/kg/injection, schedule: Q01DX009 (ip), vehicle: saline.
Setting [8] is: dose: 50.0 mg/kg/injection, schedule: Q01DX009 (ip), vehicle: Klucel (hydroxypropylcellulose) (HPC).

For `CC(C)c1ccc(/C=C2\N=C(c3ccc([N+](=O)[O-])cc3)OC2=O)cc1`, the T/C by setting is: under setting [1], 100 % of control; under setting [2], 100 % of control; under setting [3], 98 % of control.

On to `Nc1nc(CNc2ccc(Cl)cc2)nc(Nc2ccc(Cl)cc2)n1`, for which the T/C reads like this: (dose: 100.0 mg/kg/injection, schedule: Q04DX003 (ip), vehicle: saline with Tween-80) 89 % of control; (dose: 200.0 mg/kg/injection, schedule: Q04DX003 (ip), vehicle: saline with Tween-80) 95 % of control; (dose: 400.0 mg/kg/injection, schedule: Q04DX003 (ip), vehicle: saline with Tween-80) 95 % of control.

For the compound `Cc1ccc2scc3c4ccccc4nc-3c2c1`, the T/C was 95 % of control under setting [4] and 95 % of control (dose: 50.0 mg/kg/injection, schedule: Q01DX009 (ip), vehicle: saline).

For `C/C(=N\N=C(/C)c1ccc2cc3c(cc2c1)OCO3)c1ccc2cc3c(cc2c1)OCO3`, the T/C by setting is: (dose: 75.0 mg/kg/injection, schedule: Q01DX001 (ip), vehicle: saline) 97 % of control; (dose: 150.0 mg/kg/injection, schedule: Q01DX001 (ip), vehicle: saline) 92 % of control; (dose: 300.0 mg/kg/injection, schedule: Q01DX001 (ip), vehicle: saline) 89 % of control.

`Nc1cc(Cl)cc2c1-c1c(Cl)cc(Cl)cc1C2=O`: the T/C under setting [1] is 100 % of control; the T/C under setting [5] was 97 % of control; the T/C under setting [2] is 106 % of control; the T/C (dose: 200.0 mg/kg/injection, schedule: Q04DX003 (ip), vehicle: Klucel (hydroxypropylcellulose) (HPC)) is 95 % of control.

On to `Nc1ncnc(N)c1NC(=O)COc1ccc([N+](=O)[O-])cc1`, for which the T/C is, setting by setting: (dose: 100.0 mg/kg/injection, schedule: Q01DX001 (ip), vehicle: Klucel (hydroxypropylcellulose) (HPC)) 102 % of control; (dose: 200.0 mg/kg/injection, schedule: Q01DX001 (ip), vehicle: Klucel (hydroxypropylcellulose) (HPC)) 94 % of control; (dose: 400.0 mg/kg/injection, schedule: Q01DX001 (ip), vehicle: Klucel (hydroxypropylcellulose) (HPC)) 100 % of control.

Consider `O=C(N/N=C/c1cccnc1)c1cccc([N+](=O)[O-])c1`, for which the T/C is 89 % of control under setting [1], 95 % of control under setting [2] and 101 % of control under setting [3].

For the compound `O=[N+]([O-])c1ccc(C[Se]c2ncnc3c2ncn3C2OC(CO)C(O)C2O)cc1` (configuration not stated), the T/C under setting [6] was 100 % of control; the T/C (dose: 6.25 mg/kg/injection, schedule: Q01DX005 (ip), vehicle: saline) was 106 % of control; the T/C under setting [7] is 98 % of control; the T/C (dose: 12.5 mg/kg/injection, schedule: Q01DX005 (ip), vehicle: saline) is 96 % of control; the T/C (dose: 12.5 mg/kg/injection, schedule: Q01DX009 (ip), vehicle: saline) is 98 % of control; the T/C (dose: 12.5 mg/kg/injection, schedule: Q01DX009 (ip), vehicle: water) was 93 % of control. The T/C is 109 % of control (dose: 25.0 mg/kg/injection, schedule: Q01DX005 (ip), vehicle: saline); 102 % of control under setting [4]; 98 % of control (dose: 25.0 mg/kg/injection, schedule: Q01DX009 (ip), vehicle: water); 93 % of control (dose: 50.0 mg/kg/injection, schedule: Q01DX009 (ip), vehicle: water).

In the case of `Nc1ccc(N=Nc2ccccc2)c(N)c1`, the T/C reads like this: (dose: 100.0 mg/kg/injection, schedule: Q01DX009 (ip), vehicle: saline) 95 % of control; (dose: 200.0 mg/kg/injection, schedule: Q01DX009 (ip), vehicle: saline) 101 % of control; (dose: 400.0 mg/kg/injection, schedule: Q01DX009 (ip), vehicle: saline) 95 % of control.

Turning to `NNc1nc(Cl)nc(C(Cl)(Cl)Cl)c1Cl` (tested in a mixture with another compound), the T/C runs as follows: under setting [8], 87 % of control; under setting [1], 87 % of control; under setting [2], 89 % of control.

As to `CCC(CC)C(O)CC(O)CC(C)C` (configuration not stated), the T/C by setting is: (dose: 25.0 mg/kg/injection, schedule: Q04DX003 (ip), vehicle: other) 100 % of control; (dose: 50.0 mg/kg/injection, schedule: Q04DX003 (ip), vehicle: other) 106 % of control; (dose: 100.0 mg/kg/injection, schedule: Q04DX003 (ip), vehicle: other) 101 % of control.

As for `C=CCOc1ccnc(SC)n1`, the T/C (dose: 75.0 mg/kg/injection, schedule: Q01DX009 (ip), vehicle: Klucel (hydroxypropylcellulose) (HPC)) is 98 % of control; the T/C (dose: 150.0 mg/kg/injection, schedule: Q01DX009 (ip), vehicle: Klucel (hydroxypropylcellulose) (HPC)) is 103 % of control; the T/C (dose: 300.0 mg/kg/injection, schedule: Q01DX009 (ip), vehicle: Klucel (hydroxypropylcellulose) (HPC)) is 90 % of control.

As for `CNC(=O)Nc1cccc(C(=O)O)c1`, the T/C was 98 % of control under setting [1], 103 % of control under setting [2] and 92 % of control under setting [3].

Regarding `Cc1ccccc1Oc1ccccc1N`, the T/C reads like this: (dose: 100.0 mg/kg/injection, schedule: Q01DX009 (sc), vehicle: olive oil, sesame oil, peanut oil) 101 % of control; (dose: 100.0 mg/kg/injection, schedule: Q04DX003 (sc), vehicle: olive oil, sesame oil, peanut oil) 110 % of control; (dose: 200.0 mg/kg/injection, schedule: Q01DX009 (sc), vehicle: olive oil, sesame oil, peanut oil) 101 % of control; (dose: 200.0 mg/kg/injection, schedule: Q04DX003 (sc), vehicle: olive oil, sesame oil, peanut oil) 94 % of control; (dose: 400.0 mg/kg/injection, schedule: Q01DX009 (sc), vehicle: olive oil, sesame oil, peanut oil) 97 % of control; (dose: 400.0 mg/kg/injection, schedule: Q04DX003 (sc), vehicle: olive oil, sesame oil, peanut oil) 116 % of control.

As to `[Br][Pb]([c]1ccccc1)([c]1ccccc1)[c]1ccccc1`, the T/C runs as follows: (dose: 1.5 mg/kg/injection, schedule: Q01DX009 (ip), vehicle: saline) 103 % of control; (dose: 1.56 mg/kg/injection, schedule: Q04DX003 (ip), vehicle: acetone) 93 % of control; under setting [6], 100 % of control; (dose: 3.12 mg/kg/injection, schedule: Q04DX003 (ip), vehicle: acetone) 91 % of control; under setting [7], 92 % of control; (dose: 6.25 mg/kg/injection, schedule: Q04DX003 (ip), vehicle: acetone) 88 % of control.

For the compound `c1ccc(C(C2=NCCN2)c2ccccc2)cc1`, the T/C (dose: 25.0 mg/kg/injection, schedule: Q04DX003 (ip), vehicle: Klucel (hydroxypropylcellulose) (HPC)) was 101 % of control; the T/C under setting [8] was 102 % of control; the T/C (dose: 50.0 mg/kg/injection, schedule: Q04DX003 (ip), vehicle: Klucel (hydroxypropylcellulose) (HPC)) was 106 % of control; the T/C under setting [1] was 91 % of control; the T/C under setting [5] was 101 % of control and 103 % of control.

As for `CCCCCCC(=O)C1OC1CCCCCCCCC(=O)O` (configuration not stated), the T/C reads like this: (dose: 100.0 mg/kg/injection, schedule: Q04DX002 (ip), vehicle: other) 112 % of control; (dose: 400.0 mg/kg/injection, schedule: Q04DX002 (ip), vehicle: other) 94 % of control.

`CC(CN1CC(=O)NC(=O)C1)N1CC(=O)NC(=O)C1.[Cl][Pt][Cl]` (configuration not stated): the T/C is, setting by setting: (dose: 12.5 mg/kg/injection, schedule: Q04DX003 (ip), vehicle: water) 106 % of control; (dose: 25.0 mg/kg/injection, schedule: Q04DX003 (ip), vehicle: water) 97 % of control; (dose: 50.0 mg/kg/injection, schedule: Q04DX003 (ip), vehicle: water) 109 % of control; (dose: 100.0 mg/kg/injection, schedule: Q01DX009 (ip), vehicle: water) 108 % of control; (dose: 100.0 mg/kg/injection, schedule: Q04DX003 (ip), vehicle: water) 106 % of control and 107 % of control; (dose: 200.0 mg/kg/injection, schedule: Q01DX009 (ip), vehicle: water) 121 % of control. Further, the T/C runs as follows: (dose: 200.0 mg/kg/injection, schedule: Q04DX003 (ip), vehicle: water) 101 % of control; (dose: 400.0 mg/kg/injection, schedule: Q01DX009 (ip), vehicle: water) 160 % of control; (dose: 400.0 mg/kg/injection, schedule: Q04DX003 (ip), vehicle: water) 118 % of control.

Take `CCCOC(=O)CCOC`: the T/C is 94 % of control (dose: 100.0 mg/kg/injection, schedule: Q01DX001 (ip), vehicle: saline); 103 % of control (dose: 200.0 mg/kg/injection, schedule: Q01DX001 (ip), vehicle: saline); 103 % of control (dose: 400.0 mg/kg/injection, schedule: Q01DX001 (ip), vehicle: saline).
